The text below walks through data of US20200397894A1, “COMPOSITIONS AND METHODS FOR TREATING CANCER” (University of Virginia Patent Foundation, priority 2016, published 2020).

The test system of one experiment is HNSCC cells. As to the kind of experiment: Colony formation and CYQUANT cell viability assays. The note with it: Homo sapiens. It is filed as cell-based. How it is done:
HNSCC cells were transfected with si-RNA (48 hours prior to first count) or treated with pevonedistat (24 hours prior to first count). 8×10^5 cells were seeded in 60 mm plates and cell proliferation was determined by staining with trypan blue and counting by COUNTESS™ Automated Cell Counter (INVITROGEN™, Carlsbad, Calif., United States of America). Depending on the cell growth rate, cell counts were recorded either every 24 or 48 hours, and growth curves were established.
The effect of pevonedistat treatment or transient silencing of CDT2, geminin, or EMI1 on cell proliferation or on radiation sensitivity was tested using clonogenic survival assays. Cells were transfected with the appropriate si-RNA 48 hours prior to seeding. Cells were then counted using COUNTESS™ Automated Cell Counter (INVITROGEN™, Carlsbad, Calif., United States of America) and were seeded at 15,000 cells/plate in 60 mm dishes. Cells were irradiated 24 hours after seeding with various doses and were cultured for 7-10 days. […] QUANTITY ONE® software (BioRad Laboratories, Inc., Hercules, Calif., United States of America) was used to quantify the number of colonies and survival curves were established based on the linear quadratic model, using the formula S=e^−αD-βD2; where S represents the surviving fraction and D the dose of irradiation. […]

In the next experiment the test system is SLM2 melanoma cells. As to the kind of experiment: Rereplication by propidium iodide staining and FACS. The format is cell-based, human. The procedure: (§1) The effects of pevonedistat, vemurafenib, and/or silencing of various cell cycle-associated proteins by siRNA on cell cycle distribution and rereplication were assessed by propidium iodide staining and flow cytometry of asynchronous melanoma cultures. Synchronization of cells was not employed to avoid bias and to be able to measure the impact of these perturbations on proliferating cancer cells. Briefly, asynchronous melanoma cell lines were treated with pevonedistat or vemurafenib, or transfected with si-CDT1, si-CDT2, si-SET8, si-p21, sigeminin, si-EMI1, or si-GL2 for a time ranging from 24 to 96 hours. Cells were washed with cold PBS, harvested, and fixed in 70% (v/v) ethanol. Cells were subsequently treated with 20 μg of DNase-free RNase and stained with propidium iodide according to instructions of the manufacturer. Samples were analyzed on a FACSCAN™ (Becton, Dickinson and Company, Franklin Lakes, N.J., United States of America) and G0-G1, S, and G2-M fractions were segmented, and apoptotic (sub-G1 DNA content) and rereplicating (>G2/M DNA content) fractions were determined using FLOWJO® (FLOWJO, LLC, Ashland, Oreg., United States of America) and ModFit (Verity Software House, Topsham, Me., United States of America) software.

Experiment [1] relates to VMM39 cells. The description is as above. The format is cell-based, human. As to conditions: VMM39, 1 μM pevonedistat. The procedure: as §1
The next experiment deals with VMM18 cells. Described as above. It is filed as cell-based, human. The note with it: VMM18, 1 μM pevonedistat. The procedure:
as §1

Experiment [2] relates to PIG3V or PIG1 immortalized but not malignant melanocytic cell lines. Briefly: Proliferation of immortalized non-malignant melanocytic cell lines. As to conditions: Homo sapiens. The format is cell-based.
For a further experiment, the system named is DM93 cells. As to the kind of experiment: Clonogenic survival assay. The format is cell-based, human. The procedure: (§2) Cell survival following CDT2 depletion or pevonedistat treatment was assessed by clonogenic survival assay, preformed in triplicates. 72 hours following transfection with si-GL2 or si-CDT2, cells were trypsinized, counted, and seeded in 60 mm dishes. For pevonedistat treatments, cells were counted and seeded in 60 mm dishes and treated 24 hours later with various doses of pevonedistat or with DMSO. Cells were cultured for two weeks and were subsequently washed in cold PBS, fixed in cold methanol for 10 minutes, and stained with crystal violet (0.5%) for 10 minutes. Plates were washed with water, dried, and pictures were captured using IMAGE LAB™ software (BioRad Laboratories, Inc., Hercules, Calif., United States of America). Quantification of colonies was performed using QUANTITY ONE® software (BioRad Laboratories, Inc., Hercules, Calif., United States of America). Results are represented as mean±s.e.m. of triplicates normalized to the corresponding DMSO-treated or si-GL2 transfected controls.

Experiment [3] deals with VMM39 cells. Briefly: Clonogenic survival assay. The format is cell-based, human. The procedure:
as §2

The subject of experiment [4] is cullin ubiquitylation substrates (CDT2, CDT1, p21, p27) in DM93 cells. As to the kind of experiment: Immunoblotting of cullin ubiquitylation substrates. It is filed as cell-based, human. As to conditions: DM93, increasing doses for 24 hours; significant levels at 1 μM. The procedure: Melanoma cells were lysed with RIPA lysis buffer (50 mM Tris, pH 8.0; 150 mM NaCl, 1% NP-40; 0.5% sodium deoxycholate; 0.1% SDS; 1 mM Benzamidine-HCl; 0.5 μg/ml Leupeptin; 0.5 μg/ml Aprotinin; 1 μg/ml pepstatin; 20 mM NaF; 20 mM Na3VO4), and equal amounts of protein were electrophoretically separated in a polyacrylamide 8-12% gel (Bio-Rad Laboratories, Inc., Hercules, Calif., United States of America), trans-blotted to a nitrocellulose membrane, and incubated overnight with primary antibodies at 4° C. The following antibodies were used: Anti-p21 (C19), anti-p27 (C19), anti-p53 (DO-1), and anti-tubulin (10D8) were purchased from Santa Cruz Biotechnology, Inc. (California, United States of America). Antibodies against SET8, CHK1, CHK2, p-CHK1 (S375), p-CHK2 (T68), H2AX and p-H2AX (γH2AX; T139), and PARP were purchased from Cell Signaling Technology, Inc. (Danvers, Mass., United States of America). Anti-Cul3 was purchased from Bethyl Laboratories (Montgomery, Tex., United States of America). Anti-CDT1 and anti-CDT2 antibodies were described before (Abbas et al., 2010). The immunoblot signals were detected by enhanced chemiluminescence. For murine melanoma xenografts, tumors were isolated, washed three times with cold PBS, and frozen at −80° C. until use. […]
A general note: Immunoblotting shows a protein as a band on a membrane.

In the case of `NS(=O)(=O)OCC1CC(n2ccc3c(NC4CCc5ccccc54)ncnc32)CC1O` [pevonedistat, ((1S,2S,4R)-4-(4-((1S)-2,3-Dihydro-H-inden-1-ylamino)-7H-pyrrolo(2,3-d)pyrimidin-7-yl)-2-hydroxycyclopentyl)methyl sulphamate], the IC50 – broadly, the midpoint of a concentration-inhibition curve – in the experiment on HNSCC cells was ~50 nM; in experiment [2], > 500 nM. Further, the “Percent of Cells in S and G2/M at 24 hours” value is on record as 46.8% in the experiment on SLM2 melanoma cells (SLM2, 1 μM pevonedistat, 24 hours); 37.9% in the experiment on VMM39 cells [1] (24 hours); 7.83% in the experiment on VMM18 cells (24 hours). The “Percent of Cells in S and G2/M at 72 Hours” value in the experiment on SLM2 melanoma cells (SLM2, 1 μM pevonedistat, 72 hours) is given as 50.2%; in the experiment on VMM39 cells [1] (72 hours) it was 33.8%; with VMM18 cells (72 hours), 16.9%. The cells with rereplication entry in the experiment on SLM2 melanoma cells (SLM2, 72 hours post-treatment) was “more than 58%”. In addition, the “drug concentration inhibiting proliferation (clonogenic survival)” value in the experiment on DM93 cells is listed as 100 nM; with VMM39 cells [3] it was 50 nM. Moreover, the “cullin ubiquitylation substrates CDT2, CDT1, p21 and p27” value in experiment [4] was “dose-dependent increase”.
